Assay [1] deals with AChE. As to conditions: cited from earlier work.
The target in assay [2] is T1, acetylcholinesterase enzyme from electric eel (Electrophorus electricus, UniProt O42275).
T1 construct: purchased Sigma-Aldrich CAS Number 9000-81-1 (catalogue number not given)
The experiment in a line: Acetylcholinesterase (AChE) inhibitory assay (DTNB/acetylthiocholine iodide, absorbance at 412 nm). It is filed as biochemical. As for the experimental part:
The in vitro cholinesterase inhibitory activity of the 14 synthesized spiro-oxindole derivatives (IIa–n) were evaluated. […] Galantamine was used as a positive control for comparison.
Acetylcholinesterase (AChE) inhibitory assay.
140 μL of 0.1 M sodium phosphate buffer of pH 8 was first added to a 96-wells microplate followed by 20 μL of test samples and 20 μL of 0.09 units/mL acetylcholinesterase enzyme from electric eel (Sigma-Aldrich, CAS Number 9000-81-1). After 15 min of incubation at 25 °C, 10 μL of 10 mM 5,5′-dithiobis-2-nitrobenzoic acid (DTNB, Sigma-Aldrich, CAS Number 69-78-3) was added into each well followed by 10 μL of 14 mM acetylthiocholine iodide (Sigma-Aldrich, CAS Number 1866-15-5). Thirty min after the initiation of enzymatic reaction, absorbance of the colored end-product was measured using StatFax-2100 microplate reader (Awareness Technology, Inc., USA) at 412 nm. Each test was conducted in triplicates. Test samples were prepared in DMSO at an initial concentration of 1 mg/mL (1000 ppm).
The concentration of DMSO in final reaction mixture was 1%.
The initial screening was carried out at 50 μg/mL of test samples in 1% DMSO. Absorbance of the test samples was corrected by subtracting the absorbance of their respective blank. Percentage enzyme inhibition is calculated using the following formula Percentage of inhibition = Absorbance of control - […]

One may read the IC50 as the concentration needed to halve the response being measured. In general, inhibition refers to the percentage by which the read-out fell short of the control.

Where two headings read alike, the source gives them in different places.

For the compound `COc1ccc2c3c1O[C@H]1C[C@@H](O)C=C[C@@]31CCN(C)C2` [Galantamine], in assay [1] (positive control (STD), Table 1, read-out: AChE Inhibition IC50), the IC50 is […].

T1 sequence (O42275 24-633): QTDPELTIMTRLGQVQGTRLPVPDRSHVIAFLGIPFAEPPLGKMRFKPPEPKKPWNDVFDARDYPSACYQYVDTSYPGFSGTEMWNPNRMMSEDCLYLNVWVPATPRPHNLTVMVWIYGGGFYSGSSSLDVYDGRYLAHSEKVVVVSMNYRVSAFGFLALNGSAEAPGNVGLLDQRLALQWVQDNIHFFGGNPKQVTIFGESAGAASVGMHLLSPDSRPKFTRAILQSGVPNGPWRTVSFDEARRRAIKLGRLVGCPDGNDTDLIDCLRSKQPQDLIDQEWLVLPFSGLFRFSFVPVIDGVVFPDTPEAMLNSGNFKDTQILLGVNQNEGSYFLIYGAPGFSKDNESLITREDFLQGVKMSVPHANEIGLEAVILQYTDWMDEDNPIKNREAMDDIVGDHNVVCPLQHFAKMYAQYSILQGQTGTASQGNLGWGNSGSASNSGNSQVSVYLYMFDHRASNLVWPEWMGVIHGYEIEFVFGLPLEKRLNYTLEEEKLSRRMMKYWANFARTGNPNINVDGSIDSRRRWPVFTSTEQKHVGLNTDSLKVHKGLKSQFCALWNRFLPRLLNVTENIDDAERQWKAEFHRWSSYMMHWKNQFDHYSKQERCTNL

As for `O=C(c1ccc(Br)cc1)C1C(c2cc3ccccc3s2)C2C3CCCCC3CN2[C@@]12C(=O)Nc1ccc(Cl)cc12` (stereo partly drawn) [IIn, (3S)-1′-(Benzo[b]thiophen-2-yl)-2′-(4-bromobenzoyl)-5-chloro-1′,2′,5′,5a’,6′,7′,8′,9′,9a’,9b’-decahydrospiro[indoline-3,3′-pyrrolo[2,1-a]isoindol]-2-one], the inhibition at 1.56 µg/mL in assay [2] (Conc 1.56 ug/ml) was 15.6%. This compound also returned an inhibition at 3.125 µg/mL in assay [2] (Conc 3.125 ug/ml) of 23.4%. This compound also displayed an inhibition at 6.25 µg/mL in assay [2] (Conc 6.25 ug/ml) of 32.5%. In assay [2] (Conc 12.5 ug/ml), 12.5 µg/mL produced 41.8% inhibition. In assay [2] (Conc 25 ug/ml), the inhibition at 25 µg/mL came to 50.1%. Also, at 50 µg/mL the inhibition in assay [2] (Conc 50 ug/ml) was 61%. Also, the IC50 in assay [2] (read-out: IC50 value against AChE) was 36.8 µM; in assay [2] (supplement, six concentrations 1.56-50 μg/mL, read-out: IC50 (AchE inhibition) (converted)), 36.8 µM.

Turning to `O=C1/C(=C/c2ccc(Cl)cc2Cl)CN(C(=O)C2CC3CCCN3C23C(=O)Nc2cc(Cl)ccc23)C/C1=C\c1ccc(Cl)cc1Cl` (stereo not drawn) [compound A], the “AChE inhibitory activity IC50” value in assay [1] (compound A) is reported as 2.37 ± 0.11 µg/mL. The 50% inhibitory concentration (IC50) in assay [1] (compound A, read-out: AChE inhibitory activity IC50) is 3.33 µM.

As to `O=C1/C(=C/c2ccc(Cl)cc2)CN(C(=O)C2CC3CCCN3C23C(=O)Nc2ccccc23)C/C1=C\c1ccc(Cl)cc1` (stereo not drawn) [compound B], the “AChE inhibitory activity IC50” value in assay [1] (compound B, Figure 1) was 2.28 ± 0.07 µg/mL.
